Measured values published in patent publication US10106516B2, “PDE10 inhibitors and related compositions and methods” (Omeros Corporation, priority 2010, dated 2018).

How the values were obtained:
[1] = target: T1, PDE10 (Homo sapiens, UniProt Q9Y233); assay: PDE10 biochemical assay (two-step Thompson and Appleman method or SPA); conditions: PDE10 inhibition
T1 construct: made in house; host or cells: Sf9 insect cells (baculovirus)

[2] = tested on: C57BL/6 male mice; assay: PCP-induced hyperactivity model of psychosis; assay type: in vivo; conditions: vs vehicle+PCP control
Procedure: (§1) Dosing of the compounds is by intraperitoneal (i.p.) injection or oral gavage (p.o.). Intraperitoneal injection is accomplished by restraining the animal, exposing the abdomen and inserting the needle just above the knees on the mouse's right side. Oral gavage is performed by restraining the animal in such a way that its head is tilted back and the esophagus is relatively straight. The gavage needle (20 G×1.5″, Cadence Science) is inserted into the mouth in line with the body and gently pushed along the esophagus and into the stomach. If resistance is encountered the needle is removed and reinserted.
Psychostimulant-induced hyperactivity is measured by injecting animals with PCP and monitoring the animals' activity levels in VersaMax chambers (Accuscan Instruments, Columbus, Ohio) measuring 40×40 cm. Locomotor activity is detected by photobeam breaks as the animal crosses each beam. The animal is placed in the center of the field and left undisturbed for 20 minutes to measure its spontaneous activity in a novel environment. Measurements used to assess locomotor activity include: horizontal activity, total distance traveled, vertical activity (rearing events—animal raises up on hindlimbs), rotation, stereotypy, and distance traveled in the center compared to total distance traveled (center:total distance ratio). The NMDA antagonist PCP induces a psychosis-like syndrome manifest as hyperactivity and increased stereotypic behavior. Known antipsychotics are able to reverse psychostimulant-induced hyperactivity and stereotypy.
(§2) C57BL/6 male mice were given either compound 1-1 or vehicle by intraperitoneal injection (FIG. 1) or oral gavage (FIG. 2). Twenty minutes (for i.p.) or forty minutes (for p.o.) later, they were injected with PCP (5 mg/kg, i.p.). Ten minutes later, the mice were placed in activity chambers and their locomotor activity in the horizontal dimension was monitored by infrared beam breaks for 20 min (5 consecutive 4-minute intervals (INT) as indicated).
as §2, with “2-1” for “1-1”, “3)” for “1)”, “4).” for “2).”, “40” for “forty”
as §2, with “11-1” for “1-1”, “injection. Five” for “injection (FIG. 1) or oral gavage (FIG. 2). Twenty”, “later” for “(for i.p.) or forty minutes (for p.o.) later,”

[3] = tested on: PDE10; conditions: Soderling and Beavo 2000, read-out: IC50 (50% inhibitory concentration); cited from earlier work
[4] = tested on: C57BL/6 male mice; assay: Conditioned avoidance response (CAR) model of psychosis; assay type: in vivo; conditions: 12 mg/kg oral gavage, 30 minutes before testing; vs vehicle
Procedure: as §1
Conditioned avoidance response (CAR) is a behavioral test to evaluate the antipsychotic effect of a test compound. It utilizes a shuttle box (Med Associates, St. Albans, Vt.) with two identical chambers separated by a retractable door. Each chamber is fitted with a metal grid floor that is capable of delivering electric shocks independently. A computer program is used to implement the testing paradigm as well as record the animal's movement between the two chambers through infrared beam sensors. The testing paradigm is as follows. A mouse is placed into one chamber. A light (conditioned stimulus, CS) comes on. Five seconds later, mild electric shocks (0.4 mA; (unconditioned stimulus, US) are delivered to the chamber where the mouse is located (as detected by infrared beams) until the mouse escapes to the adjacent chamber or until 10 sec has elapsed. The US and CS always co-terminate. With randomized inter-trial intervals averaging 15 sec, 30 such CS-US pairing trials are given to each mouse each day. For each trial, an escape response is registered if the mouse crosses to the other chamber after being shocked (i.e., during the 10-sec US period), and an avoidance response is registered if the mouse crosses to the other chamber during the first 5-sec CS only period. The animals are trained in this paradigm for 30-40 days, during which the average percentage of avoidance responses will improve to 80-90%. […] These trained animals are then used for compound testing with the same paradigm.
C57BL/6 male mice were trained in the CAR paradigm to predict and avoid the noxious stimulus (foot shock), reaching a plateau of approximately 25 avoidance responses per 30 trials each day. […] Vehicle treatment and compound treatment were given to the same animals on alternating days, and the effect of compound in reducing avoidance response was analyzed through within-subject comparison (paired t-test).
C57BL/6 male mice were trained in the CAR paradigm to predict and avoid the noxious stimulus (foot shock), reaching a plateau of approximately 25-28 avoidance responses per 30 trials (“training plateau”) each day. […] Vehicle treatment and compound treatment were given to the same animals on alternating days, and the effect of compound in reducing avoidance response was analyzed through within-subject comparison (paired t-test).

[5] = target: PDE10; conditions: PDE10, in vitro binding studies; read-out: dissociation constant (Kd) for cGMP binding; cited from earlier work
[6] = 10 mg/kg i.p., 20 min before PCP (5 mg/kg, i.p.)

T1 sequence (Q9Y233 1-779 isoform Q9Y233-1): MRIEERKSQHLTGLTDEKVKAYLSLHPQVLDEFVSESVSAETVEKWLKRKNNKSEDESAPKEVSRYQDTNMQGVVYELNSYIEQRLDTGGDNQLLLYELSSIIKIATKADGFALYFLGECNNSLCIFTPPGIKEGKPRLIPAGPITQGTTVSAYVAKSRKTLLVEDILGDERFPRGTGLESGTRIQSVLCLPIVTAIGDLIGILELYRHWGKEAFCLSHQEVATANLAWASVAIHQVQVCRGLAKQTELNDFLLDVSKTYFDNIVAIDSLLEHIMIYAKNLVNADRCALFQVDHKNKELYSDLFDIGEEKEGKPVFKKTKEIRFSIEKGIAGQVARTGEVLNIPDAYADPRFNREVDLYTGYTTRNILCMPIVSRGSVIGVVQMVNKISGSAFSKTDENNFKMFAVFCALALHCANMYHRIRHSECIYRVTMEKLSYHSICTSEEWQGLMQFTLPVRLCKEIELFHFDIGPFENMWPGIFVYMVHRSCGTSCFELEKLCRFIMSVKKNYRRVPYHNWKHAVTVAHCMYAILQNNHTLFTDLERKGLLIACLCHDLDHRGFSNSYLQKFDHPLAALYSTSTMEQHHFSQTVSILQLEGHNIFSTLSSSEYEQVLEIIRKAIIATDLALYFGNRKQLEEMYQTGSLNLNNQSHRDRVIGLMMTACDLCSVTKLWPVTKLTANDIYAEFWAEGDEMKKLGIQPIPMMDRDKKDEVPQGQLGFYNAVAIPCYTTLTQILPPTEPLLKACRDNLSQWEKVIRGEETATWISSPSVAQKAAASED

SMILES: COc1cc(-c2csc(C(=O)C(OC)c3ccc(N4CCOCC4)cc3)n2)cc(OC)c1Br (stereo not drawn) [Compound 1-1, 1-(4-(4-Bromo-3,5-Dimethoxyphenyl)Thiazol-2-Yl)-2-Methoxy-2-(4-Morpholinophenyl)Ethanone]
- IC50 [1]: ≤ 1000 nM
- reduction of PCP-induced hyperactivity (horizontal locomotor activity) [2, 6]: significantly reduces
- reduction of PCP-induced hyperactivity (horizontal locomotor activity) ([2]; oral gavage, dose not given, 40 min before PCP (5 mg/kg, i.p.)): effective

SMILES: CC(C)Cn1c(=O)n(C)c(=O)c2[nH]cnc21 [IBMX]
- IC50 [3]: 2600 nM

SMILES: COc1cc(-c2coc(C(=O)C(OC)c3ccc(N4CCOCC4)cc3)n2)cc(OC)c1Br (stereo not drawn) [Compound 2-1, 1-(4-(4-Bromo-3,5-Dimethoxyphenyl)Oxazol-2-Yl)-2-Methoxy-2-(4-Morpholinophenyl)-Ethanone]
- IC50 [1]: ≤ 1000 nM
- reduction of PCP-induced hyperactivity (horizontal locomotor activity) [2, 6]: significantly reduces
- reduction of PCP-induced hyperactivity (horizontal locomotor activity) ([2]; 10 mg/kg oral gavage, 40 min before PCP (5 mg/kg, i.p.)): effective
- reduction of number of avoidance responses (CAR) [4]: significantly reduces

SMILES: Nc1nc2c(ncn2[C@@H]2O[C@@H]3COP(=O)(O)O[C@H]3[C@H]2O)c(=O)[nH]1 [cGMP]
- Kd [5]: > 9000 nM
